Measurements: patent publication US20090137688A1, “PHARMACEUTICAL PRODUCT” (priority 2005, published 2009)
Where a name gives a salt, the structure may show the parent alone.

Assay: Accumulative release from porous silicon samples immersed in PBS buffer, measured by UV spectroscopic technique
Type: physicochemical
Conditions: PBS buffer at 37 C; for rate of release when the porous silicon wafer has been coated with cocoa butter, relative to the uncoated state: Method A, cocoa butter layer approx. 1 mm, FIG. 1
Protocol: A number of experiments were performed to show the effect of an excipient upon the release of a beneficial substance from the pores of porous silicon. Three substances were tested: chlorambucil, amitriptyline hydrochloride, neutral red. The excipient employed was cocoa butter. Three methods of combining the porous silicon, excipient, and beneficial substance, were carried out.
Method A comprises the steps of: (a) dissolving the beneficial substance in ethanol; (b) introducing the ethanolic solution of the beneficial substance to the surface of the porous silicon wafer and allowing it to pass into the pores; (c) applying heat to the porous silicon wafer by means of a hot plate to drive off the ethanol, (d) removing the excess beneficial substance, that has not entered the pores, by washing with ethanol; (e) dropping melted cocoa butter oil onto the porous side of the wafer, which has been loaded with a beneficial substance; and (f) allowing the wafer to cool at an ambient temperature of 20 C for approximately one hour, the cocoa butter forming a layer, approximately 1 mm in depth, that coats the surface of the porous silicon.
Method B comprises the steps: (a) dissolving the beneficial substance and excipient in ethanol; (b) introducing the ethanolic solution of the beneficial substance and excipient to the surface of the porous silicon wafer and allowing it to pass into the pores; (c) applying heat to the porous silicon wafer by means of a hot plate thereby driving off the ethanol, and (d) removing the excess beneficial substance and excipient, that have not entered the pores, by washing with ethanol. The porosified wafer, utilized for methods A and B, comprised mesoporous silicon having a porosity of 74%.
Method C comprises the steps: (a) fabricating particles of porous silicon by milling one or more porous silicon membranes; (b) combining the silicon particles with an ethanolic solution of the beneficial substance in a flask; (c) removing the ethanol by rotary evaporation; (d) mixing the beneficial substance loaded particles with excipient, (e) introducing the mixture to a cylindrical die, and (f) applying a uniaxial pressure of 0.5 ton to form a pellet. The porous silicon membrane, utilized for method C, comprises mesoporous silicon having a porosity of: 77%.
Samples of porous silicon that have been combined with beneficial substance and excipient by methods A, B, and C were then immersed in PBS buffer at 37 C, and the accumulative release was measured by means of a UV spectroscopic technique.
The uncoated samples, the results for which are shown in FIG. 1, were prepared, with the steps (a) to (d) of method A.

[1] = mesoporous silicon wafer, porosity 74%

Row | Compound | rate of release when the porous silicon wafer has been coated with cocoa butter, relative to the uncoated state [1] | rate of release for porous silicon loaded with beneficial substance alone, compared with solution loading with cocoa butter (Method B, mesoporous silicon wafer, porosity 74%, FIG. 2) | rate of release from pellet, excipient free sample versus pellet with equal mass of cocoa butter and porous silicon, during the first seven hours (Method C, compressed pellet, mesoporous silicon porosity 77%, FIG. 3) | rate of release from the excipient containing pellet beyond seven hours (Method C, pellet with equal mass of cocoa butter and porous silicon, FIG. 3)
1 | CN(C)CCC=C1c2ccccc2CCc2ccccc21 [amitriptyline hydrochloride] | slower |  |  | 
2 | O=C(O)CCCc1ccc(N(CCCl)CCCl)cc1 [chlorambucil] | increases | faster than when the excipient is present | higher, from the excipient free sample | accelerates until it is higher than that of the excipient free sample
